Legend:
[1] = Inhibition of FIH (unknown origin); design: species or system Homo sapiens
[2] = target: Voltage-gated inwardly rectifying potassium channel KCNH2 (Homo sapiens, UniProt Q12809); experiment: Inhibition of human ERG at 30 uM; format: toxicity
Cytochrome P450 2C19 = Cytochrome P450 2C19 (Homo sapiens, UniProt P33261); experiment: Inhibition of CYP2C19 in human liver microsomes using S-mephenytoin as substrate preincubated for 5 mins followed by NADPH addition and measured after 45 mins by LC-MS/MS analysis; format: ADME, Microsome
Chain of Cytochrome P450 2C19 (P33261 whole entry): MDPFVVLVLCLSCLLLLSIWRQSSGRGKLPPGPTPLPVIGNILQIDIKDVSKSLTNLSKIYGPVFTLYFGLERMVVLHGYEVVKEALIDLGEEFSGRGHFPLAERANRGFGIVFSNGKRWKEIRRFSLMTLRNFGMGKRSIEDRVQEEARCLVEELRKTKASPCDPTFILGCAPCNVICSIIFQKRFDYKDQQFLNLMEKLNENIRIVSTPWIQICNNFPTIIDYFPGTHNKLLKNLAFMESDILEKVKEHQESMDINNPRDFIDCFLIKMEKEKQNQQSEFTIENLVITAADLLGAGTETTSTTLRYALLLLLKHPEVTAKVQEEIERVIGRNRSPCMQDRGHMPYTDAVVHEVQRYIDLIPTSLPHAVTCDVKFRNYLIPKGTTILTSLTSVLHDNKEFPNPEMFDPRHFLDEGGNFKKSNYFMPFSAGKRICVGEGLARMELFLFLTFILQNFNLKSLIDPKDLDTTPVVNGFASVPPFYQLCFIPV

Cytochrome P450 2D6 = Cytochrome P450 2D6 (Homo sapiens, UniProt P10635); experiment: Inhibition of CYP2D6 in human liver microsomes using bufuralol as substrate preincubated for 5 mins followed by NADPH addition and measured after 10 mins by LC-MS/MS analysis; format: ADME, Microsome
Chain of Cytochrome P450 2D6 (P10635 whole entry): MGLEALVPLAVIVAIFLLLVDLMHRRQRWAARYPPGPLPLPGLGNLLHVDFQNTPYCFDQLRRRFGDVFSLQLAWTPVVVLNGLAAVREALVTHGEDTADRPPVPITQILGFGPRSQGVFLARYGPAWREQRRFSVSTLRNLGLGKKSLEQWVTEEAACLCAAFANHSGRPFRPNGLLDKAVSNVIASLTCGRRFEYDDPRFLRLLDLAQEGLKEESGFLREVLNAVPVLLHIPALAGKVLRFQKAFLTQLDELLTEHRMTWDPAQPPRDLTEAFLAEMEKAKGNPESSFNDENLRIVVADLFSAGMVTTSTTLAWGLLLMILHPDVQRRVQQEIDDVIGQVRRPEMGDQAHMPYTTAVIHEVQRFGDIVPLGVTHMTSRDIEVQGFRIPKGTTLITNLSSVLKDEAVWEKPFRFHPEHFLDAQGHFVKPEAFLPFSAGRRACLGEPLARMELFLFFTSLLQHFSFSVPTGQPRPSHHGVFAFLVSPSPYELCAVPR

Cytochrome P450 1A2 = target: T1, Cytochrome P450 1A2 (Homo sapiens, UniProt P05177); experiment: Inhibition of CYP1A2 in human liver microsomes using phenacetin as substrate preincubated for 5 mins followed by NADPH addition and measured after 10 mins by LC-MS/MS analysis; format: ADME, Microsome
T1 sequence (P05177 whole entry): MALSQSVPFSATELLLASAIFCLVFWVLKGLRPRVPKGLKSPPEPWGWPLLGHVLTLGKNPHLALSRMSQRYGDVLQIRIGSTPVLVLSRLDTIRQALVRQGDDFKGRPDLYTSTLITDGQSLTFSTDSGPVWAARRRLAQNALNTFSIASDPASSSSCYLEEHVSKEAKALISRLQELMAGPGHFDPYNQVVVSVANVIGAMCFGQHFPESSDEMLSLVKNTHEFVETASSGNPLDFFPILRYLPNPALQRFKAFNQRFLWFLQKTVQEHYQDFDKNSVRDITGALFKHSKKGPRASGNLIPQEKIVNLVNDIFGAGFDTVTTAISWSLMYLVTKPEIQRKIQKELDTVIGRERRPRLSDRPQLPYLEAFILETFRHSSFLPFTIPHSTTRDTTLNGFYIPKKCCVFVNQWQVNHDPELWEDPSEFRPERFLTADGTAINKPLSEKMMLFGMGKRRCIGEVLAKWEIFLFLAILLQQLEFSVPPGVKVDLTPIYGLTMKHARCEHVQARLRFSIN

Cytochrome P450 2C9 = Cytochrome P450 2C9 (Homo sapiens, UniProt P11712); experiment: Inhibition of CYP2C9 in human liver microsomes using diclofenac as substrate preincubated for 5 mins followed by NADPH addition and measured after 10 mins by LC-MS/MS analysis; format: ADME, Microsome
Chain of Cytochrome P450 2C9 (P11712 whole entry): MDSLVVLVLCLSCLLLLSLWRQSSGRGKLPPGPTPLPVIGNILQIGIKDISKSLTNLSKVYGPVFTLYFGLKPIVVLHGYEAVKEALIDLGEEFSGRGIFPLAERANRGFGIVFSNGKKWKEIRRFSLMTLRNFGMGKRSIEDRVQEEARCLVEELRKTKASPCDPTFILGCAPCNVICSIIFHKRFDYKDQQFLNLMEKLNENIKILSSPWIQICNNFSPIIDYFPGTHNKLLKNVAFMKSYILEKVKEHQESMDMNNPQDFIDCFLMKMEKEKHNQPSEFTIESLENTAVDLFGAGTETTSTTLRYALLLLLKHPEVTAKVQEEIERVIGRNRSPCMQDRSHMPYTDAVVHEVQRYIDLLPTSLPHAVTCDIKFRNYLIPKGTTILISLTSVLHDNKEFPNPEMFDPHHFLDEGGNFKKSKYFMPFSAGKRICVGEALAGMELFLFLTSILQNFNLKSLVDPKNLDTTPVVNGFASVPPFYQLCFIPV

Cytochrome P450 3A4 = Cytochrome P450 3A4 (Homo sapiens, UniProt P08684); experiment: Inhibition of CYP3A4 in human liver microsomes using testosterone as substrate preincubated for 5 mins followed by NADPH addition and measured after 5 mins by LC-MS/MS analysis; format: ADME, Microsome
Chain of Cytochrome P450 3A4 (P08684 whole entry): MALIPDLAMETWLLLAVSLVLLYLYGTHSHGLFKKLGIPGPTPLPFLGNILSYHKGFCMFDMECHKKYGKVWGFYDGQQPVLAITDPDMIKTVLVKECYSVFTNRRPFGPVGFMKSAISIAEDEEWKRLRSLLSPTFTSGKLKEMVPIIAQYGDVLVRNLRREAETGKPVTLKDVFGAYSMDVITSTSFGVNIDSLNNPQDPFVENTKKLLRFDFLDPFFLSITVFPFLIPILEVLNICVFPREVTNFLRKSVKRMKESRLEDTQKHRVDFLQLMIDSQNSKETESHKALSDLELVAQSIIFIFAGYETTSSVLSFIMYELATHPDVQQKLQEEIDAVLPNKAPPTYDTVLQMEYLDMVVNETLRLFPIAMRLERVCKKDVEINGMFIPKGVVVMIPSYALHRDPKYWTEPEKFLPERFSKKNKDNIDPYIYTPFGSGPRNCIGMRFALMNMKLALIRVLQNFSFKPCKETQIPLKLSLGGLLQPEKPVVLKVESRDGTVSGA

[3] = Metabolic stability in rat liver microsomes assessed as intrinsic clearance in presence of NADPH by LC-MS/MS analysis

Chain of Voltage-gated inwardly rectifying potassium channel KCNH2 (Q12809 whole entry): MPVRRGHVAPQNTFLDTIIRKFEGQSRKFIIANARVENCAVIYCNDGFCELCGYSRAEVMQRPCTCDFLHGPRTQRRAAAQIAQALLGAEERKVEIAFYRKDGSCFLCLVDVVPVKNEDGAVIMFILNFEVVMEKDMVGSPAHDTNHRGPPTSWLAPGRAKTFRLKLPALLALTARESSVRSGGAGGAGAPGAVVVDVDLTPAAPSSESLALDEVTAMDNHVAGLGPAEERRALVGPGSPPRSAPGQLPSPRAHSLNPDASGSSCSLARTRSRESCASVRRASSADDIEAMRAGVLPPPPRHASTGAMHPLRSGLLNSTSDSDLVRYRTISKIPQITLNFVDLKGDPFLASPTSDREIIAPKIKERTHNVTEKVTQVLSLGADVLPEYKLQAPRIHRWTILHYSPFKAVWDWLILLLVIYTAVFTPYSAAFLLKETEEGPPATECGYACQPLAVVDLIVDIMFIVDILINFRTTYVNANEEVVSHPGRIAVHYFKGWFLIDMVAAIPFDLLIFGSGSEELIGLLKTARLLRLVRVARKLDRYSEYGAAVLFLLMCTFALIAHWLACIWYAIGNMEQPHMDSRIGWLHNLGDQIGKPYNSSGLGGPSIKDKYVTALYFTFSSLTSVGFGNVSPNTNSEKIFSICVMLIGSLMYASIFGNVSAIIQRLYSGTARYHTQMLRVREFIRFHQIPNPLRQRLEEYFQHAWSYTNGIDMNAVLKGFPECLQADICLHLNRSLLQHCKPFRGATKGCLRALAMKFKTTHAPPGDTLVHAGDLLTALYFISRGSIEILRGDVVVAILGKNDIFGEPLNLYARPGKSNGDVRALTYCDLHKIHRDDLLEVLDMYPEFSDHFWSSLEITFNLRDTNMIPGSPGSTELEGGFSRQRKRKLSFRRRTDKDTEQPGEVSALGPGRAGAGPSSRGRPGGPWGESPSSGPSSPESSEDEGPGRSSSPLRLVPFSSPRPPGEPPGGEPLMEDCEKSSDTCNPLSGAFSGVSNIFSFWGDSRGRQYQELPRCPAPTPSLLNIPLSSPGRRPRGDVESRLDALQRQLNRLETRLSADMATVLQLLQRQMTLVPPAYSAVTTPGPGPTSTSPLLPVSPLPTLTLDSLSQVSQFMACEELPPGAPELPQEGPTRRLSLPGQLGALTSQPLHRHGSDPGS

SMILES: O=C(O)Cc1cs/c(=N\C(=O)C2CCN(S(=O)(=O)Cc3ccccc3)C2)n1O (stereo not drawn)
- IC50 [1]: 280 nM

SMILES: O=C(O)CNC(=O)c1ncc(-c2cc(-c3cc(Cl)cc(Cl)c3)no2)cc1O
- inhibition (INH) [2]: Not_active
- IC50 (Cytochrome P450 2C19): > 30 µM
- IC50 (Cytochrome P450 2D6): > 30 µM
- IC50 (Cytochrome P450 1A2): > 30 µM
- IC50 (Cytochrome P450 2C9): > 30 µM
- IC50 (Cytochrome P450 3A4): > 30 µM

SMILES: C[C@]12CC[C@H]3[C@@H](CCC4=CC(=O)CC[C@@]43C)[C@@H]1CC[C@@H]2O [TESTOSTERONE]
- microsomal CLint [3]: 1200 µL/min/mg

From ChEMBL document CHEMBL6087392, “Discovery of ZG-2305, an Orally Bioavailable Factor Inhibiting HIF Inhibitor for the Treatment of Obesity and Fatty Liver Disease” (J Med Chem, 2025)
